The values that follow come from paper PMC8583781, “Identification and Functional Analysis of a Pseudo-Cysteine Protease from the Midgut Transcriptome of Sphenophorus levis” (International Journal of Molecular Sciences, 2021).

As usually defined, the Ki is a dissociation constant, usually derived from enzyme kinetics or from competition with a known ligand.

The target in the assay is T1, Sl-CathL-mutSC.
T1 construct: ORF of Sl-CathL-CS (GenBank JZ136744.1) without signal peptide, C-terminal 6x His tag, expressed in P. pastoris KM71H
As to the kind of experiment: fluorogenic protease assay (AMC release), Ki by Morrison equation. In kind it is biochemical, Sphenophorus levis.

In the case of `CC(C)C[C@H](NC(=O)[C@H]1O[C@@H]1C(=O)O)C(=O)NCCCCN=C(N)N` [E-64], the Ki is 38.5 ± 1.2 µM.
